Reference: ChEMBL document CHEMBL1201862, “PubChem BioAssay data set” (2004)
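Tested at 5 concentrations; 48 h exposure; 96-well plates; endpoints linearly interpolated, else capped at highest concentration. GI50 = concentration required for 50% inhibition of growth.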 The source made the active and inactive calls. Rule as the data show it: active = GI50 up to about 1.1 µM and inactive = higher.

Assays:
Test in all cases: NCI anticancer screen, dose series, 48 h
[1] = tested on: 786-0
[2] = tested on: HCC 2998
[3] = tested on: RPMI-8226
[4] = tested on: NCI-H522
[5] = tested on: U-251
[6] = tested on: NCI-H226
[7] = tested on: CCRF-CEM
[8] = tested on: SF-268
[9] = tested on: HOP-92
[10] = tested on: HT-29
[11] = tested on: TK-10
[12] = tested on: A549
[13] = tested on: SNB-75
[14] = tested on: UACC-62
[15] = tested on: Malme-3M
[16] = tested on: CAKI-1
[17] = tested on: SF-539
[18] = tested on: SK-OV-3
[19] = tested on: OVCAR-3
[20] = tested on: SN12C

Row | SMILES | GI50 [1] | GI50 [2] | GI50 [3] | GI50 [4] | GI50 [5] | GI50 [6] | GI50 [7] | GI50 [8] | GI50 [9] | GI50 [10] | GI50 [11] | GI50 [12] | GI50 [13] | GI50 [14] | GI50 [15] | GI50 [16] | GI50 [17] | GI50 [18] | GI50 [19] | GI50 [20]
1 | O=C1Nc2ccccc2C1Cc1ccccc1 (stereo unspecified) | > 100 µM (inactive) | > 100 µM (inactive) | > 100 µM (inactive) | > 100 µM (inactive) | > 100 µM (inactive) | > 100 µM (inactive) | > 100 µM (inactive) | > 100 µM (inactive) | > 100 µM (inactive) | > 100 µM (inactive) | > 100 µM (inactive) | > 100 µM (inactive) | 0.296 µM (active) | > 100 µM (inactive) | > 100 µM (inactive) | > 100 µM (inactive) | > 100 µM (inactive) | > 100 µM (inactive) | > 100 µM (inactive) | 
2 | COc1ccc(-c2cc(O)c3cc(OC)ccc3n2)cc1 | > 100 µM (inactive) | 5.74 µM (inactive) | > 100 µM (inactive) | > 100 µM (inactive) |  | > 100 µM (inactive) | > 100 µM (inactive) | 36.6 µM (inactive) | > 100 µM (inactive) | > 100 µM (inactive) | > 100 µM (inactive) | > 100 µM (inactive) | 92.9 µM (inactive) | > 100 µM (inactive) | > 100 µM (inactive) |  |  | > 100 µM (inactive) | > 100 µM (inactive) | > 100 µM (inactive)
3 | c1cc2nnsc2s1 | 44.5 µM (inactive) | > 100 µM (inactive) | 93.5 µM (inactive) | > 100 µM (inactive) | > 100 µM (inactive) | > 100 µM (inactive) | > 100 µM (inactive) | > 100 µM (inactive) | > 100 µM (inactive) | > 100 µM (inactive) | > 100 µM (inactive) |  | > 100 µM (inactive) | > 100 µM (inactive) | > 100 µM (inactive) | > 100 µM (inactive) | > 100 µM (inactive) | > 100 µM (inactive) |  | > 100 µM (inactive)
4 | CC(=O)OCCOCNC(=S)N/N=C/c1ccc(Br)s1 | > 76.6 µM (inactive) | > 100 µM (inactive) | 5.08 µM (inactive) | 8.17 µM (inactive) | > 95.3 µM (inactive) | > 100 µM (inactive) | 3.74 µM (inactive) | > 100 µM (inactive) | > 100 µM (inactive) | > 100 µM (inactive) | > 100 µM (inactive) | > 88.7 µM (inactive) | > 100 µM (inactive) | > 100 µM (inactive) | > 100 µM (inactive) |  | > 100 µM (inactive) | > 100 µM (inactive) | > 89.1 µM (inactive) | > 100 µM (inactive)
5 | C/C(=N\NC(=S)N1CCN(c2ccccn2)CC1)c1ncccn1 | 0.0601 µM (active) | 0.361 µM (active) | 0.0131 µM (active) | 0.0538 µM (active) | 0.0369 µM (active) | 0.216 µM (active) | 0.00615 µM (active) | 0.0323 µM (active) | 1.63 µM (inactive) | 0.0161 µM (active) | 2.67 µM (inactive) | 0.166 µM (active) | 3.43 µM (inactive) | 0.0344 µM (active) | 0.267 µM (active) | 1.76 µM (inactive) | 0.527 µM (active) | 0.284 µM (active) |  | 0.566 µM (active)
6 | COc1c(C)c(OC)c2c(c1O)[C@@H]1[C@@H]3Cc4c(OC)c(C)c(OC)c(O)c4[C@H](CNC(=O)c4ccc5ccccc5n4)N3[C@@H](C#N)[C@H](C2)N1C | 0.000494 µM (active) | 0.00014 µM (active) | 0.000324 µM (active) | 0.000144 µM (active) | 0.000632 µM (active) | 0.00143 µM (active) |  | 0.000883 µM (active) | 0.000363 µM (active) | 0.000893 µM (active) | 0.000444 µM (active) | 0.00263 µM (active) | 0.00262 µM (active) | 0.000411 µM (active) | 0.000162 µM (active) | 0.00401 µM (active) | 0.0017 µM (active) |  | 0.000235 µM (active) | 0.00103 µM (active)
7 | CCOC(=O)C(C(N)=O)C1=Nc2cc([N+](=O)[O-])ccc2N/C1=C\C(=O)c1ccccc1 (stereo unspecified) | 11.4 µM (inactive) | 10.1 µM (inactive) | 11.1 µM (inactive) | 14.9 µM (inactive) | 11.3 µM (inactive) | 31.3 µM (inactive) |  | 12.7 µM (inactive) | 15.4 µM (inactive) | 16.5 µM (inactive) | 11 µM (inactive) | 17.3 µM (inactive) | 17.7 µM (inactive) | 17.3 µM (inactive) | 19.9 µM (inactive) | 22.9 µM (inactive) | 15.1 µM (inactive) | 14.1 µM (inactive) | 10.3 µM (inactive) | 23.1 µM (inactive)
8 | Cc1ccc(Nc2nc(N)nc3c2ncn3C2OC(CO)C(O)C2O)cc1 (stereo unspecified) | > 100 µM (inactive) | > 100 µM (inactive) | > 100 µM (inactive) | > 100 µM (inactive) | > 100 µM (inactive) | > 100 µM (inactive) | > 100 µM (inactive) |  | > 100 µM (inactive) | > 100 µM (inactive) | > 100 µM (inactive) | > 100 µM (inactive) | > 100 µM (inactive) | > 100 µM (inactive) | > 100 µM (inactive) | > 100 µM (inactive) | > 100 µM (inactive) | > 100 µM (inactive) | > 100 µM (inactive) | > 100 µM (inactive)
9 | Cn1c(=O)c2ccc(-c3ccc(Br)cc3)nc2n(C)c1=O | > 100 µM (inactive) | > 100 µM (inactive) | > 100 µM (inactive) | > 100 µM (inactive) | > 100 µM (inactive) | > 100 µM (inactive) | > 100 µM (inactive) | > 100 µM (inactive) | > 100 µM (inactive) | > 100 µM (inactive) | 49.5 µM (inactive) | > 100 µM (inactive) | 29.6 µM (inactive) | > 100 µM (inactive) | > 100 µM (inactive) |  | > 100 µM (inactive) | > 100 µM (inactive) | > 100 µM (inactive) | 
10 | COC(=O)[C@H](Cc1c[nH]c2ccccc12)NC(=O)OCC1OC(n2cc(C)c(=O)[nH]c2=O)CC1N=[N+]=[N-] (stereo partly specified) | > 100 µM (inactive) | > 100 µM (inactive) | > 100 µM (inactive) | > 100 µM (inactive) | > 100 µM (inactive) | > 100 µM (inactive) | 93.3 µM (inactive) | > 100 µM (inactive) | > 100 µM (inactive) | > 100 µM (inactive) | > 100 µM (inactive) | > 100 µM (inactive) | 84.5 µM (inactive) | 61.5 µM (inactive) | > 100 µM (inactive) | > 100 µM (inactive) |  | > 100 µM (inactive) | > 100 µM (inactive) | > 100 µM (inactive)
11 | Cc1nc2c(o1)/C(=N\c1ccccc1)c1nc(C)oc1/C2=N/c1ccccc1 | 17.7 µM (inactive) | 32.4 µM (inactive) | 29.6 µM (inactive) | 21.7 µM (inactive) | 17.7 µM (inactive) | 21.4 µM (inactive) | 61.1 µM (inactive) | 23.7 µM (inactive) | 24 µM (inactive) | 20.4 µM (inactive) | 32.7 µM (inactive) | 24.8 µM (inactive) | 11.7 µM (inactive) | 18.8 µM (inactive) | 19.4 µM (inactive) |  | 14.1 µM (inactive) | 20.2 µM (inactive) | 39.2 µM (inactive) | 17.5 µM (inactive)
12 | CCCCCCCCCCCCCCCCOP(=O)(O)Oc1ccc(/C=C\c2ccc(OP(=O)(O)OCCCCCCCCCCCCCCCC)cc2)cc1 | 26.2 µM (inactive) | > 100 µM (inactive) | 19.3 µM (inactive) | 29.6 µM (inactive) | 34 µM (inactive) | 42.7 µM (inactive) | 29 µM (inactive) | 34.9 µM (inactive) | 5.02 µM (inactive) | 62.7 µM (inactive) | 25.1 µM (inactive) | 82.4 µM (inactive) | 12 µM (inactive) | > 100 µM (inactive) | > 100 µM (inactive) | > 100 µM (inactive) |  | > 100 µM (inactive) | 43.2 µM (inactive) | > 100 µM (inactive)
13 | [N-]=[N+]=NC(CCl)c1cn([C@H]2C[C@H](O)[C@@H](CO)O2)c(=O)[nH]c1=O (stereo partly specified) | > 100 µM (inactive) | > 100 µM (inactive) | > 100 µM (inactive) | > 100 µM (inactive) | > 100 µM (inactive) | > 100 µM (inactive) | > 100 µM (inactive) |  | > 100 µM (inactive) | > 100 µM (inactive) | > 100 µM (inactive) | > 100 µM (inactive) | > 100 µM (inactive) | > 100 µM (inactive) | > 100 µM (inactive) | > 100 µM (inactive) | > 100 µM (inactive) | > 100 µM (inactive) | > 100 µM (inactive) | > 100 µM (inactive)
14 | CCCCCCCCCCCC/C=C\CC[C@@H](O)[C@H](O)CC[C@H](O)[C@@H]1CC[C@@H](CCCCCCCC2=C[C@H](C)OC2=O)O1 [GIGANTRIONENIN] | 6.21 µM (inactive) | 17.3 µM (inactive) | 2.65 µM (inactive) | 7.45 µM (inactive) | 3.08 µM (inactive) | 1.48 µM (inactive) | 1.44 µM (inactive) | 4.42 µM (inactive) | 2.47 µM (inactive) | 2.31 µM (inactive) | 2.17 µM (inactive) | 1.73 µM (inactive) | 7.66 µM (inactive) | 1.35 µM (inactive) | 13.7 µM (inactive) | 15.8 µM (inactive) | > 10 µM (inactive) |  | 1.99 µM (inactive) | 5.05 µM (inactive)
